Results published in patent US20020198177A1, “Coenzyme Q and EPA” (priority 2001, published 2002).

Legend:
cyclin D1 = settings: in vitro and in animal models of cancer; cited from earlier work
mantle cell lymphoma = experiment: Case study: high-dose ethyl eicosapentaenoate in a patient with mantle cell lymphoma; type: in vivo, human
Source text: The following example reports that cancer developed in an individual who had been taking ethyl-EPA at a regular dose of 1 g/d. This individual had also at times in the past three years taken 2 g/d EPA but still cancer developed. […] Doses of 3 g/d to 30 g/d, and preferably of 5 g/d or 20 g/d will therefore be useful in the treatment of cancer. The EPA may be provided in any assimilable form. However, the triglyceride form and the ethyl-ester form are relatively non-irritant to the gastrointestinal tract and are the preferred forms for delivering these large amounts by mouth although other forms could be used for the intravenous route of administration. The EPA for oral administration should be in the purest form possible, at least 70% pure, preferably 80-90% pure, and very preferably 95% or more pure. Docosahexaenoic acid and linoleic acid should each be present at less than 5% and preferably less than 1%. The EPA may be formulated in capsules, liquids or emulsions such as may be required to make it appropriate for either oral or intravenous administration.
A person who had been taking 1 g/d of ethyl eicosapentaenoate as a supplement for general health reasons developed a form of non-Hodgkin's lymphoma called a mantle cell lymphoma. This is characterised by an over-production of a cell cycle controlling factor known as cyclin D1. Cyclin D1 appears to force the cells to divide continually. […] However, high doses are required to achieve the necessary levels in the cancer tissue.
(§1) It was therefore decided to give the patient 10 g/d of 96% pure ethyl eicosapentaenoate containing less than 1% docosahexaenoic acid and no detectable linoleic acid.

cancerous cells = settings: cited from earlier work
[1] = type: in vivo, human
Source text: as §1
No certain cause of the abnormal rhythm was identified. One possibility may have been the high intake of EPA. EPA at very high doses might theoretically give rise to oxygenated metabolites which could disturb cardiac rhythm. EPA at low doses seems to be strongly anti-arrhythmic but it is known that many anti-arrhythmic drugs can have pro-arrhythmic actions at certain doses.
Ubiquinone may have favourable effects on cardiac rhythm (R B Singh et al, Cardiovascular Drugs and Therapy 1998; 12: 347-353). 120 mg/day was given to the patient taking high dose EPA. […] The ubiquinone was then stopped after ten days.

[2] = ubiquinone 120 mg/day added to high dose EPA, second day

Q: With CC/C=C\C/C=C\C/C=C\C/C=C\C/C=C\CCCC(=O)OCC [ethyl eicosapentaenoate] as the compound, how does the “synthesis of cyclin D1” value (cyclin D1) read?
A: The value was “able to inhibit the synthesis of cyclin D1”.

Q: And the “effect on the patient's palpable tumours” value (mantle cell lymphoma; 10 g/d of 96% pure ethyl eicosapentaenoate, sixth day of treatment, person)?
A: Its value is “began to regress”.

Q: And the cancer size (mantle cell lymphoma; dose of EPA increased to 10 g/day, within a matter of days)?
A: The cancer size was “reduced dramatically in size”.

Q: And the “management of cancer at low dose” value (mantle cell lymphoma; doses of EPA of 2 g/day or less, cancer developed on 1 g/d, at times 2 g/d)?
A: Its value is “likely to be ineffective”.

Q: And the “growth of cancerous cells” value (cancerous cells)?
A: The value was “could inhibit the growth of cancerous cells”.

Q: With COC1=C(OC)C(=O)C(C/C=C(\C)CC/C=C(\C)CC/C=C(\C)CC/C=C(\C)CC/C=C(\C)CC/C=C(\C)CC/C=C(\C)CC/C=C(\C)CC/C=C(\C)CCC=C(C)C)=C(C)C1=O [ubiquinone] as the compound, how does the “heart rate and rhythm” value [1, 2] read?
A: The value was “returned to normal”.

Q: And the “heart rate at rest” value [1, 2]?
A: Its value is 65 to 75 min⁻¹.

Q: What about the “cardiac rate and rhythm abnormality on continued treatment” value ([1]; ubiquinone plus high dose of EPA over a period of four months) of the same compound?
A: Its value is “no return of the cardiac rate and rhythm abnormality”.

Q: And the “heart rate and rhythm on reintroducing ubiquinone” value ([1]; ubiquinone reintroduced, high dose EPA continued)?
A: The value was “normal rate and rhythm came back”.

Q: And the “heart rate and rhythm after stopping ubiquinone” value ([1]; ubiquinone stopped after ten days, four days after stopping, high dose EPA continued)?
A: The value was “variability of rate and rhythm returned”.
